Measurements as given in patent publication US9353082B2, “Pharmaceutical compounds” (BIAL—PORTELA & CA, S.A., priority 2008, dated 2016).

Key:
[1] = molecular target: T1, FAAH (Mus musculus, UniProt O08914); assay: In vivo FAAH inhibition after oral dosing, remaining activity in brain homogenate (BRh, central nervous tissue); parameters: species or system NMRI mice; conditions: brain homogenate, low value = strong inhibitor; for In Vivo BRh 3 mg·kg 8 h (remaining FAAH activity, % of control): 8 h after dosing; for In Vivo BRh 3 mg · kg · 8 h (remaining FAAH activity): 3 mg/kg oral
T1 construct: A fragment of liver, left lung lobe and brain without cerebellum were removed; from tissue; host or cells: male NMRI mice; brain (without cerebellum) and liver homogenates
T1 sequence (O08914 1-579): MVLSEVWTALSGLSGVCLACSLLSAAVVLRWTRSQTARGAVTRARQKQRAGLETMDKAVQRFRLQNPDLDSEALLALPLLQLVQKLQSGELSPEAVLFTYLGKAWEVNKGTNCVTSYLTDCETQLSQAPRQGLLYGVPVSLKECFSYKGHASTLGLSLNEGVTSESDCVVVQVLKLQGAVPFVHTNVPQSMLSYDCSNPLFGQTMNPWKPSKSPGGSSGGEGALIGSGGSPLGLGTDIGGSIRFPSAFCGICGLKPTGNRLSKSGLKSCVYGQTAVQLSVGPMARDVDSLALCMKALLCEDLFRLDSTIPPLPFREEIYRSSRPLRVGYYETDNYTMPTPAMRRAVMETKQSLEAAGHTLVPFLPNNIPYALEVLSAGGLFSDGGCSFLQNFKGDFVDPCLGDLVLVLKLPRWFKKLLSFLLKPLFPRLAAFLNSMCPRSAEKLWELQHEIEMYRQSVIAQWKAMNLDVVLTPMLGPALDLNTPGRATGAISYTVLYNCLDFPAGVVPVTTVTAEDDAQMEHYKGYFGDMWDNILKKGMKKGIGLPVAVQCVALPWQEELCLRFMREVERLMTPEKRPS
Protocol: (§1) The in vivo test was performed according to the protocol described below. BRh indicates inhibition in central nervous tissue and LVh indicates inhibition in peripheral tissue, in this case liver.
(§2) The animals used for experiments were male NMRI mice (weighing 27-44 g) obtained from Interfauna Ibérica (Spain). Mice were kept 5 per cage, under controlled environmental conditions (12 hr light/dark cycle and room temperature 22±1° C.). Food and tap water were allowed ad libitum and the experiments were all carried out during daylight hours.
(§3) Animals were administered 30 mg/kg or 3 mg/kg compounds of the invention via oral route (8 ml/kg; compound suspended in 0.5% carboxymethylcellulose (CMC) or solubilized in water) or vehicle (controls) using animal feeding stainless steel curve needles (Perfectum, U.S.A.). Fifteen minutes before sacrifice animal were anesthetized with pentobarbital 60 mg/kg administered intraperitoneally. A fragment of liver, left lung lobe and brain without cerebellum were removed and put in plastic vials containing membrane buffer (3 mM MgCl2, 1 mM EDTA, 50 mM Tris HCl pH 7.4). Tissues were stored at −30° C. until analysis.
(§4) Animals were always fasted overnight before administration of compounds except for time points of >18 h, where food was removed on the morning of day of administration and the compound was administered in the afternoon of the same day. Animals were then given water but nothing else.
(§5) Tissues were thawed on ice and were homogenized in 10 volumes of membrane buffer (3 mM MgCl2, 1 mM EDTA, 50 mM Tris HCl pH 7.4) with either Potter-Elvejhem (brains—8 strokes at 500 rpm) or Heidolph Diax (livers—2 strokes at position 5 for 20 sec with 30 sec pauses).
(§6) Total protein in tissues was determined with the BioRad Protein Assay (BioRad) using a standard curve of BSA (50-250 μg/ml).
(§7) Reaction mix (total volume of 200 μl) contained: […] (2 μM AEA+5 nM ^3H-AEA), 0.1% fatty acid free BSA, 15 μg (brain), 5 μg (liver) or 50 μg (lung) protein, in 1 mM EDTA, 10 mM Tris pH 7.6. After a […] pre-incubation period at 37° C., reaction was started by the addition of the substrate solution (cold AEA+radiolabelled AEA+BSA). Reaction was carried out for 10 min (brain and lung) or […] (liver) before termination by the addition of 400 μl activated charcoal suspension (8 g charcoal in 32 ml 0.5 M HCl in continuous agitation). After a […] incubation period at room temperature with agitation, charcoal was sedimented by centrifugation in microfuge (10 min at 13000 rpm). 200 μl of the supernatant were added to 800 μl Optiphase Supermix scintillation cocktail previously distributed in 24-well plates. Counts per minute (cpm) were determined in a MicrobetaTriLux scintillation counter.
(§8) In each assay blanks (without protein) were prepared.
(§9) The percentage of remaining enzymatic activity was calculated in respect to controls and after blank subtraction.

[2] = molecular target: T1, FAAH; assay: In vivo FAAH inhibition after oral dosing, remaining activity in liver homogenate (LVh, peripheral tissue); parameters: species or system NMRI mice; conditions: liver homogenate, low value = strong inhibitor; for In Vivo LVh 3 mg·kg 8 h (remaining FAAH activity, % of control): 8 h after dosing; for In Vivo LVh 3 mg · kg · 8 h (remaining FAAH activity): 3 mg/kg oral
Protocol: as §1, §2, §3, §4, §5, §6, §7, §8, §9

| In Vivo BRh 3 mg·kg 8 h (remaining FAAH activity, % of control) [1] | In Vivo LVh 3 mg·kg 8 h (remaining FAAH activity, % of control) [2] | In Vivo BRh 3 mg · kg · 8 h (remaining FAAH activity) [1] | In Vivo LVh 3 mg · kg · 8 h (remaining FAAH activity) [2] | SMILES |
| --- | --- | --- | --- | --- |
| 115 % of control | 112.4 % of control | – | – | CN(C(=O)n1cnc(-c2cccc(-c3ccccc3)c2)c1)C12CC3CC(CC(C3)C1)C2 [Compound 290, 4-biphenyl-3-yl-N-methyl-N-tricyclo[3.3.1.13,7]dec-1-yl-1H-imidazole-1-carboxamide] |
| 3.5 % of control | 1.7 % of control | – | – | COc1ccc2nnn(C(=O)N3COCC3(C)C)c2c1 [Compound 293, (4,4-dimethyloxazolidin-3-yl)(6-methoxy-1H-benzo[d][1,2,3]triazol-1-yl)methanone] |
| 1.4 % of control | 1.4 % of control | – | – | CN(C(=O)n1cnc(-c2ccc(O)cc2)c1)C1CCCC1 [Compound 294, N-cyclopentyl-4-(4-hydroxyphenyl)-N-methyl-1H-imidazole-1-carboxamide] |
| 74.4 % of control | 59.2 % of control | – | – | CC1(C)OC(c2ccccc2)CN1C(=O)n1cnc(-c2ccccc2)c1 (stereo not shown) [Compound 298, (2,2-dimethyl-5-phenyloxazolidin-3-yl)(4-phenyl-1H-imidazol-1-yl)methanone] |
| 1.4 % of control | 1.2 % of control | – | – | COc1cc(-c2cn(C(=O)N(C)C3CCCC3)cn2)ccc1F [Compound 321, N-cyclopentyl-4-(4-fluoro-3-methoxyphenyl)-N-methyl-1H-imidazole-1-carboxamide] |
| – | – | 85.2 % of control | 3.8 % of control | CN(C(=O)n1cnc(-c2ccc(-c3noc(=O)[nH]3)cc2)c1)C1CCCCC1 [Compound 551, N-cyclohexyl-N-methyl-4-(4-(5-oxo-4,5-dihydro-1,2,4-oxadiazol-3-yl)phenyl)-1H-imidazole-1-carboxamide] |
| – | – | 90.2 % of control | 45 % of control | CCCN1CCC(N(C)C(=O)n2cnc(-c3cccc(C(=O)NO)c3)c2)CC1 [Compound 552, 4-(3-(hydroxycarbamoyl)phenyl)-N-methyl-N-(1-propylpiperidin-4-yl)-1H-imidazole-1-carboxamide] |
| – | – | 102.2 % of control | 85.6 % of control | CCCN1CCC(N(C)C(=O)n2cnc(-c3ccc(O)c(C(N)=O)c3)c2)CC1 [Compound 554, 4-(3-carbamoyl-4-hydroxyphenyl)-N-methyl-N-(1-propylpiperidin-4-yl)-1H-imidazole-1-carboxamide] |
| – | – | 83.1 % of control | 91.1 % of control | CN(C(=O)n1cnc(-c2cccnc2)c1)C1CCN(CC(=O)O)CC1 [Compound 558, 2-(4-(N-methyl-4-(pyridin-3-yl)-1H-imidazole-1-carboxamido)piperidin-1-yl)acetic acid] |
| – | – | 82.2 % of control | 78.6 % of control | Br.CCN1CCC(N(C)C(=O)n2cnc(-c3ccc(F)c(O)c3)c2)CC1 [Compound 561, N-(1-ethylpiperidin-4-yl)-4-(4-fluoro-3-hydroxyphenyl)-N-methyl-1H-imidazole-1-carboxamide hydrobromide] |
| – | – | 88.5 % of control | 69.8 % of control | CN(C(=O)n1cnc(-c2cccc(C(=O)NO)c2)c1)[C@H]1CC[C@H](O)CC1 [Compound 566, 4-(3-(hydroxycarbamoyl)phenyl)-N-((1r,4r)-4-hydroxycyclohexyl)-N-methyl-1H-imidazole-1-carboxamide] |
| 6.5 % of control | 9.4 % of control | – | – | COc1ccc(-c2cn(C(=O)N3COCC3(C)C)cn2)cc1N [Compound no. 356, (4-(3-amino-4-methoxyphenyl)-1H-imidazol-1-yl)(4,4-dimethyloxazolidin-3-yl)methanone] |
| 117.1 % of control | 81.2 % of control | – | – | CC1(C)COCN1C(=O)n1cnc(-c2ccc(O)c(N)c2)c1.Cl [Compound no. 358, (4-(3-amino-4-hydroxyphenyl)-1H-imidazol-1-yl)(4,4-dimethyloxazolidin-3-yl)methanone hydrochloride] |
| 4.9 % of control | 9.6 % of control | – | – | CC1(C)COCN1C(=O)n1nnc2cccnc21 [Compound no. 368, (3H-[1,2,3]triazolo[4,5-b]pyridin-3-yl)(4,4-dimethyloxazolidin-3-yl)methanone] |
| 95.3 % of control | 5.7 % of control | – | – | CN(C(=O)n1cnc(-c2ccc(S(N)(=O)=O)cc2)c1)C1CCCCC1 [Compound no. 376, N-cyclohexyl-N-methyl-4-(4-sulfamoylphenyl)-1H-imidazole-1-carboxamide] |
| 77.3 % of control | 51.3 % of control | – | – | CN(C(=O)n1cnc(-c2ccc(-c3nn[nH]n3)cc2)c1)C1CCCCC1 [Compound no. 380, 4-(4-(2H-tetrazol-5-yl)phenyl)-N-cyclohexyl-N-methyl-1H-imidazole-1-carboxamide] |
| 66.8 % of control | 16.3 % of control | – | – | CN(C(=O)n1cnc(-c2ccc(/C(N)=N/O)cc2)c1)C1CCCCC1 [Compound no. 406, (Z)—N-cyclohexyl-4-(4-(N′-hydroxycarbamimidoyl)phenyl)-N-methyl-1H-imidazole-1-carboxamide] |
| 109.1 % of control | 95.4 % of control | – | – | CN(C(=O)n1cnc(-c2ccc(S(=O)(=O)N3CCC(OCc4ccccc4)CC3)cc2)c1)C1CCCCC1 [Compound no. 415, 4-(4-(4-(benzyloxy)piperidin-1-ylsulfonyl)phenyl)-N-cyclohexyl-N-methyl-1H-imidazole-1-carboxamide] |

| SMILES | In Vivo BRh 3 mg·kg 8 h (remaining FAAH activity, % of control) [1] | In Vivo LVh 3 mg·kg 8 h (remaining FAAH activity, % of control) [2] | In Vivo BRh 3 mg · kg · 8 h (remaining FAAH activity) [1] | In Vivo LVh 3 mg · kg · 8 h (remaining FAAH activity) [2] |
| --- | --- | --- | --- | --- |
| CN(C(=O)n1cnc(-c2cccc(-c3cccc(C(N)=O)c3)c2)c1)C1CCN(Cc2ccccc2)CC1 [Compound 550, N-(1-benzylpiperidin-4-yl)-4-(3′-carbamoylbiphenyl-3-yl)-N-methyl-1H-imidazole-1-carboxamide] | – | – | 94.3 % of control | 5.7 % of control |
| CN(C(=O)n1cnc(-c2cccc(NC(=N)N)c2)c1)C1CCCCC1.Cl [Compound 553, N-cyclohexyl-4-(3-guanidinophenyl)-N-methyl-1H-imidazole-1-carboxamide hydrochloride] | – | – | 72.3 % of control | 15.4 % of control |
